Reference: patent US20210261642A1, “SOLUBILITY OF GLP-1 PEPTIDE” (Novo Nordisk A/S, priority 2017, published 2021)

Test: Assay (I): Determination of Solubility (96-well plate, pH 3.0-11.0, organic solvent 0-70% w/w, UV absorption at 280 nm)
Format: physicochemical
Settings: for Peptide concentration after 180 min / Peptide concentration after 24 h / Peptide concentration after 5 min: Method 1; for GLP-1 peptide concentration: Method 2 (precipitation), MeCN 57.3% w/w, 5° C.
Protocol: Assay (I): Determination of Solubility
96-Well Plate Preparation
96-well plates containing target peptide in a solid form were prepared in one of two ways:
Method 1 (evaporation): Addition of 100 μl stock solution of said peptide at a concentration of 4-6 mg/ml to each well of a 96-well half area plate (150 μl well size). Subsequently the solvent was evaporated by applying a vacuum until the solvent was completely removed.
Method 2 (precipitation): Addition of a certain volume of a stock solution of said peptide containing to each well of a 96-well half area plate followed by the addition of a certain volume of concentrated phosphoric acid to obtain a pH of 4.6 followed by addition of a certain volume of ethanol resulting in a final ethanol concentration of 20% v/v. Subsequently the plate was stored at 4° C. for 1 h and then centrifuged at 4,000 rpm for 20 min. Finally the supernatant was removed. The concentration of the stock solution was chosen in a way that the final amount of peptide after supernatant removal was >0.4 mg per well.
In both cases the stock solution was prepared by adding de-ionized water to a certain amount of powder of said peptide followed by a stepwise addition of small amounts of a concentrated sodium hydroxide solution until said peptide was completely in solution.
To determine solubility of a target peptide at different pH and organic solvent concentrations, two different buffer systems were used in independent experiments to cover the whole range from pH 3.0 to pH 11.0. Buffer system 1 covers pH 3.0-7.5 and buffer system 2 covers pH 7.5-11.0. For each buffer system 96 different solvent compositions were premixed in the following way: • 1. A low pH buffer (adjusted to either pH 3.0 or pH 7.5) and a high pH buffer (adjusted to either pH 7.5 or pH 11.0) were mixed at 8 different ratios to obtain values between pH 3.0 and pH 7.5 or pH 7.5 and pH 11.0, respectively. The total volume after mixing was 300 μl. • 2. 12 different amounts of organic solvent were then added to these buffers to obtain organic solvent (e.g. ethanol) concentrations between 0 and 70% w/w. • 3. Water was then added to obtain a total weight of 1.0 g of solvent in each well.
After preparing the 96 different solvent systems, 100 μl of each system was transferred to the 96-well plate containing the solid form of the target peptide (prepared as described in the section “96-well plate preparation”). The plate was then stored at a given temperature (between 5° C. and 70° C.) for a given time on a rotating shaker set to 400 rpm. At regular time intervals the plate was centrifuged (4,000 rpm for 10 min) and a 10 μl sample was taken from each well. The samples were then analysed by UV absorption at 280 nm for peptide quantification. Peptide concentration results are given as UV absorption at 280 nm of the sample subtracted UV absorption at 280 nm of a well comprising 10 μl water.
The buffers used were as follows: • Buffer system 1 (for the pH range from pH 3.0-7.5)
• Buffer system 2 (for the pH ranae from pH 7.5-11.0)
Solubility of liraglutide was determined using Assay (I) described herein. Liraglutide was prepared using Method 1 (evaporation) or Method 2 (precipitation) as described in subsection “96-well plate preparation”.

Compound: CCCCCCCCCCCCCCCC(=O)N[C@@H](CCC(=O)NCCCC[C@H](NC(=O)[C@H](C)NC(=O)[C@H](C)NC(=O)[C@H](CCC(N)=O)NC(=O)CNC(=O)[C@H](CCC(=O)O)NC(=O)[C@H](CC(C)C)NC(=O)[C@H](Cc1ccc(O)cc1)NC(=O)[C@H](CO)NC(=O)[C@H](CO)NC(=O)[C@@H](NC(=O)[C@H](CC(=O)O)NC(=O)[C@H](CO)NC(=O)[C@@H](NC(=O)[C@H](Cc1ccccc1)NC(=O)[C@@H](NC(=O)CNC(=O)[C@H](CCC(=O)O)NC(=O)[C@H](C)NC(=O)[C@@H](N)Cc1cnc[nH]1)[C@@H](C)O)[C@@H](C)O)C(C)C)C(=O)N[C@@H](CCC(=O)O)C(=O)N[C@@H](Cc1ccccc1)C(=O)N[C@H](C(=O)N[C@@H](C)C(=O)N[C@@H](Cc1c[nH]c2ccccc12)C(=O)N[C@@H](CC(C)C)C(=O)N[C@H](C(=O)N[C@@H](CCCNC(=N)N)C(=O)NCC(=O)N[C@@H](CCCNC(=N)N)C(=O)NCC(=O)O)C(C)C)[C@@H](C)CC)C(=O)O [liraglutide, Arg34,Lys26-(N-epsilon-(gamma-L-glutamyl(N-alfa-hexadecanoyl)))-GLP-1(7-37)]
- Peptide concentration after 180 min (MeCN 63.6% w/w, pH 9.5, 5° C.): 0.5 mg/mL
- Peptide concentration after 24 h (MeCN 63.6% w/w, pH 9.5, 5° C.): 1.4 mg/mL
- Peptide concentration after 5 min (MeCN 63.6% w/w, pH 10.0, 5° C.): 0.2 mg/mL
- Peptide concentration after 180 min (MeCN 63.6% w/w, pH 10.0, 5° C.): 0.3 mg/mL
- Peptide concentration after 24 h (MeCN 63.6% w/w, pH 10.0, 5° C.): 0.7 mg/mL
- Peptide concentration after 5 min (MeCN 63.6% w/w, pH 10.5, 5° C.): 0.2 mg/mL
- Peptide concentration after 180 min (MeCN 63.6% w/w, pH 10.5, 5° C.): 0.3 mg/mL
- Peptide concentration after 24 h (MeCN 63.6% w/w, pH 10.5, 5° C.): 0.6 mg/mL
- Peptide concentration after 5 min (MeCN 63.6% w/w, pH 11.0, 5° C.): 0.5 mg/mL
- Peptide concentration after 180 min (MeCN 63.6% w/w, pH 11.0, 5° C.): 0.6 mg/mL
- Peptide concentration after 24 h (MeCN 63.6% w/w, pH 11.0, 5° C.): 1.3 mg/mL
- Peptide concentration after 5 min (MeCN 70.0% w/w, pH 5.6, 5° C.): 0.2 mg/mL
- Peptide concentration after 180 min (MeCN 70.0% w/w, pH 5.6, 5° C.): 0.3 mg/mL
- Peptide concentration after 24 h (MeCN 70.0% w/w, pH 5.6, 5° C.): 0.4 mg/mL
- Peptide concentration after 5 min (MeCN 70.0% w/w, pH 6.2, 5° C.): 0.2 mg/mL
- Peptide concentration after 180 min (MeCN 70.0% w/w, pH 6.2, 5° C.): 0.3 mg/mL
- Peptide concentration after 24 h (MeCN 70.0% w/w, pH 6.2, 5° C.): 0.5 mg/mL
- Peptide concentration after 5 min (MeCN 70.0% w/w, pH 6.9, 5° C.): 0.2 mg/mL
- Peptide concentration after 180 min (MeCN 70.0% w/w, pH 6.9, 5° C.): 0.3 mg/mL
- Peptide concentration after 24 h (MeCN 70.0% w/w, pH 6.9, 5° C.): 0.5 mg/mL
- Peptide concentration after 5 min (MeCN 70.0% w/w, pH 7.5, 5° C.): 0.3 mg/mL
- Peptide concentration after 180 min (MeCN 70.0% w/w, pH 7.5, 5° C.): 0.4 mg/mL
- Peptide concentration after 24 h (MeCN 70.0% w/w, pH 7.5, 5° C.): 0.8 mg/mL
- Peptide concentration after 5 min (MeCN 70.0% w/w, pH 8.0, 5° C.): 0.3 mg/mL
- Peptide concentration after 180 min (MeCN 70.0% w/w, pH 8.0, 5° C.): 0.4 mg/mL
- Peptide concentration after 24 h (MeCN 70.0% w/w, pH 8.0, 5° C.): 0.6 mg/mL
- Peptide concentration after 5 min (MeCN 70.0% w/w, pH 8.5, 5° C.): 0.2 mg/mL
- Peptide concentration after 180 min (MeCN 70.0% w/w, pH 8.5, 5° C.): 0.4 mg/mL
- Peptide concentration after 24 h (MeCN 70.0% w/w, pH 8.5, 5° C.): 0.7 mg/mL
- Peptide concentration after 5 min (MeCN 70.0% w/w, pH 9.0, 5° C.): 0.2 mg/mL
- Peptide concentration after 180 min (MeCN 70.0% w/w, pH 9.0, 5° C.): 0.4 mg/mL
- Peptide concentration after 24 h (MeCN 70.0% w/w, pH 9.0, 5° C.): 0.9 mg/mL
- Peptide concentration after 5 min (MeCN 70.0% w/w, pH 9.5, 5° C.): 0.2 mg/mL
- Peptide concentration after 180 min (MeCN 70.0% w/w, pH 9.5, 5° C.): 0.3 mg/mL
- Peptide concentration after 24 h (MeCN 70.0% w/w, pH 9.5, 5° C.): 0.5 mg/mL
- Peptide concentration after 5 min (MeCN 70.0% w/w, pH 10.0, 5° C.): 0.2 mg/mL
- Peptide concentration after 180 min (MeCN 70.0% w/w, pH 10.0, 5° C.): 0.3 mg/mL
- Peptide concentration after 24 h (MeCN 70.0% w/w, pH 10.0, 5° C.): 0.4 mg/mL
- Peptide concentration after 5 min (MeCN 70.0% w/w, pH 10.5, 5° C.): 0.2 mg/mL
- Peptide concentration after 180 min (MeCN 70.0% w/w, pH 10.5, 5° C.): 0.2 mg/mL
- Peptide concentration after 24 h (MeCN 70.0% w/w, pH 10.5, 5° C.): 0.4 mg/mL
- Peptide concentration after 5 min (MeCN 70.0% w/w, pH 11.0, 5° C.): 0.2 mg/mL
- Peptide concentration after 180 min (MeCN 70.0% w/w, pH 11.0, 5° C.): 0.2 mg/mL
- Peptide concentration after 24 h (MeCN 70.0% w/w, pH 11.0, 5° C.): 0.5 mg/mL
- GLP-1 peptide concentration (pH 9.00, 5 min, after removal of outliers): 0.6 mg/mL
- GLP-1 peptide concentration (pH 9.00, 5 min, before removal of outliers): 0.6 mg/mL
- GLP-1 peptide concentration (pH 9.00, 180 min, after removal of outliers): 3.4 mg/mL
- GLP-1 peptide concentration (pH 9.00, 180 min, before removal of outliers): 3.4 mg/mL
- GLP-1 peptide concentration (pH 9.00, 24 h, after removal of outliers): 1.4 mg/mL
- GLP-1 peptide concentration (pH 9.00, 24 h, before removal of outliers): 1.4 mg/mL
- GLP-1 peptide concentration (pH 9.50, 5 min, after removal of outliers): 0.5 mg/mL
